How the values were obtained:
[1] = tested on: Mushroom-derived tyrosinase; assay: Tyrosinase inhibitory effect; type: biochemical; conditions: 1 mM L-tyrosin, pH 6.5, 25° C., 30 minutes, OD492; positive control kojic acid; FIGS. 3 and 4
Procedure: Mushroom-derived tyrosinase was sued as an enzyme source in the present experiment. Tyrosinase activities were assayed according to a slightly-modified conventionally known method (Life Sci., 1999, 65, 241-246). In detail, 20 μl of a mushroom-derived tyrosinase (1000 units) aqueous solution was added to 96-well microplate (Nunc, Denmark) to prepare 200 μl of the total volume of assay mixture containing 1 mM L-tyrosin solution and 50 mM phosphate buffer solution (pH 6.5). The assay mixture was cultured at a temperature of 25° C. for 30 minutes.

PPAR alpha-LBD = molecular target: T1, PPAR alpha-LBD (Homo sapiens, UniProt Q07869); assay: PPAR assay, PPARα; conditions: for PPARα activation (competitive activation rate), compared with fenofibrate: sample final concentration 100 μM, positive control fenofibrate, FIGS. 5 and 6; for simultaneous activation of PPARα and PPARγ: summary of the PPARα and PPARγ assays, sample 100 μM
T1 sequence (Q07869 239-466 limits assumed): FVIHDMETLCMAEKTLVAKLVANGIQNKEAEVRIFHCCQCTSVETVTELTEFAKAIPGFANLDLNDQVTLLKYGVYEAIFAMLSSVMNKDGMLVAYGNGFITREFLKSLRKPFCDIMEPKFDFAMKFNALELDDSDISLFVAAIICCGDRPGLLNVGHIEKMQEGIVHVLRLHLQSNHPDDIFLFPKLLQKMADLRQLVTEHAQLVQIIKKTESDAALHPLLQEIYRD

PPAR gamma-LBD = molecular target: T2, PPAR gamma-LBD (Homo sapiens, UniProt P37231); assay: PPAR assay, PPARγ; type: binding; conditions: sample final concentration 100 μM; positive control rosiglitazone; FIGS. 7 and 8
T2 sequence (P37231 238-503 limits assumed): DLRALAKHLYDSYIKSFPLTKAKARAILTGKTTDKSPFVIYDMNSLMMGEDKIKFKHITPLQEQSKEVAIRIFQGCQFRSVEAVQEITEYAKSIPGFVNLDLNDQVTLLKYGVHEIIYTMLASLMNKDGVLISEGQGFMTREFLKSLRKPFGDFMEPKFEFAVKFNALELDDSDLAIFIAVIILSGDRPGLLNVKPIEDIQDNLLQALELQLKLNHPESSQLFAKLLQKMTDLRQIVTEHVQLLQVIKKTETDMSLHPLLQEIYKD

[2] = tested on: YPEN-1 cells (rat prostatic endothelial cell line); assay: In vitro ROS scavenging activity assay (DCFDA); type: cell-based; conditions: cells pre-treated with 50 μM SIN-1 for 1 hour; DCFDA fluorescence; positive control trolox; FIGS. 1 and 2
Procedure: YPEN-1 cells (rat prostatic endothelial cell line) was obtained from American type culture collection (ATCC, Manassas, Va., USA), and the cells were cultured by using a dulbecco's modified eagle medium (DMEM, Nissui, Tokyo, Japan) containing 2 mM L-glutamine, […], 2.5 mg/L amphotericin B, and 5% inactivated fetal bovine serum (FBS). Also, the cells were maintained at a temperature of 37° C. in a humid atmosphere-like condition containing 5% CO2 and 95% air. […] The cells were sub-cultured in 100 mm plastic flask (Corning Co., New York, USA) every two days to maintain the cell line.
2′,7′-dichlorodihydrofluorescein diacetate (DCFDA) assay method according to a conventionally known method (Chem Res Toxicol. 5: 227-231, 1992) was used. In detail, 12.5 mM DCFDA dissolved in 99.9% ethanol and 600 U/ml esterase dissolved in tertiary distilled water were stored as a stock solution at a temperature of −20° C., and a 2′,7′-dichlorodihydrofluorescein (DCFH) solution prepared by mixing 10 mM DCFDA and 6 U/ml esterase was cultured at a temperature of 22° C. for 20 minutes, and then, refrigerated in a dark place before use. […] Vascular endothelial cells that were pre-treated with 50 μM 3-morpholinosydnonimine hydrochloride (SIN-1) for 1 hour were used as a reactive oxygen generation source.

Row | SMILES | melting point [°C] | tyrosinase inhibitory activities, compared with kojic acid [1] | PPARα activation (competitive activation rate), compared with fenofibrate (PPAR alpha-LBD) | simultaneous activation of PPARα and PPARγ (PPAR alpha-LBD) | PPARγ activation (competitive activation rate), compared with rosiglitazone (PPAR gamma-LBD) | scavenging effects on ROS generated by vascular endothelial cells, compared with trolox [2]
1 | Oc1ccc(-c2nc3cc(Cl)ccc3s2)cc1 [Compound 82, 4-(5-chlorobenzo[d]thiazol-2-yl)phenol] | 259.3 to 263.1 | better tyrosinase inhibitory activities than a kojic acid |  |  |  | 
2 | Oc1ccc(-c2nc3ccccc3[nH]2)c(O)c1 [Compound 45, 4-(1H-benzo[d]imidazol-2-yl)benzene-1,3-diol] |  | better tyrosinase inhibitory activities than a kojic acid | very excellent PPARα activation agent compared to fenofibrate | simultaneously activates PPARα and PPARγ | very excellent PPARγ activation agent compared to rosiglitazone | 
3 | Oc1ccc(C2Nc3cc(C(F)(F)F)ccc3S2)cc1Br (stereo not shown) [Compound 119, 2-bromo-4-(5-(trifluoromethyl)-2,3-dihydrobenzo[d]thiazol-2-yl)phenol] |  |  | very excellent PPARα activation agent compared to fenofibrate | simultaneously activates PPARα and PPARγ | very excellent PPARγ activation agent compared to rosiglitazone | as high scavenging effects on ROS generated by vascular endothelial cells as trolox
4 | COc1cc(C2Nc3cc(Cl)ccc3S2)cc(OC)c1O (stereo not shown) [Compound 94, 4-(5-chloro-2,3-dihydrobenzo[d]thiazol-2-yl)-2,6-dimethoxyphenol] | 155.8 to 158.6 | better tyrosinase inhibitory activities than a kojic acid | very excellent PPARα activation agent compared to fenofibrate | simultaneously activates PPARα and PPARγ | very excellent PPARγ activation agent compared to rosiglitazone | as high scavenging effects on ROS generated by vascular endothelial cells as trolox
5 | Oc1ccc(-c2nc3ccccc3s2)c(O)c1 [Compound 15, 4-(benzo[d]thiazol-2-yl)benzene-1,3-diol] |  | better tyrosinase inhibitory activities than a kojic acid |  |  |  | 
6 | COc1ccc(C2N[C@H](C(=O)O)CS2)c(OC)c1 (mixture of isomers) [Compound 9, (2R/S,4R)-2-(2,4-dimethoxyphenyl)thiazolidine-4-carboxylic acid] | 137.7 to 139.2 | better tyrosinase inhibitory activities than a kojic acid |  |  |  | 
7 | O=C(O)[C@@H]1CSC(c2ccc(O)cc2O)N1 (mixture of isomers) [Compound 3, (2R/S,4R)-2-(2,4-dihydroxyphenyl)thiazolidine-4-carboxylic acid] |  | better tyrosinase inhibitory activities than a kojic acid |  |  |  | 
8 | Oc1ccc(-c2nc3ccccc3[nH]2)cc1O [Compound 44, 4-(1H-benzo[d]imidazol-2-yl)benzene-1,2-diol] | 268.5 to 269.8 |  | very excellent PPARα activation agent compared to fenofibrate | simultaneously activates PPARα and PPARγ | very excellent PPARγ activation agent compared to rosiglitazone | as high scavenging effects on ROS generated by vascular endothelial cells as trolox
9 | Oc1ccc(-c2nc3cc(C(F)(F)F)ccc3s2)c(O)c1 [Compound 30, 4-(5-(trifluoromethyl)benzo[d]thiazol-2-yl)benzene-1,3-diol] | 236.2 to 238.2 | better tyrosinase inhibitory activities than a kojic acid |  |  |  | 
10 | COc1cc(-c2nc3ccccc3[nH]2)cc(OC)c1O [Compound 55, 4-(1H-benzo[d]imidazol-2-yl)-2,6-dimethoxyphenol] |  | better tyrosinase inhibitory activities than a kojic acid | very excellent PPARα activation agent compared to fenofibrate | simultaneously activates PPARα and PPARγ | very excellent PPARγ activation agent compared to rosiglitazone | 
11 | Oc1ccc(-c2nc3ccccc3s2)cc1 [Compound 13, 4-(benzo[d]thiazol-2-yl)phenol] |  | better tyrosinase inhibitory activities than a kojic acid | very excellent PPARα activation agent compared to fenofibrate | simultaneously activates PPARα and PPARγ | very excellent PPARγ activation agent compared to rosiglitazone | 
12 | O=C(O)c1csc(-c2ccc(O)cc2O)n1 [Compound 101, 2-(2,4-Dihydroxyphenyl)thiazole-4-carboxylic acid] |  | better tyrosinase inhibitory activities than a kojic acid |  |  |  | 
13 | Oc1ccc(-c2nc3cc(Cl)ccc3s2)cc1O [Compound 83, 4-(5-chlorobenzo[d]thiazol-2-yl)benzene-1,2-diol] | 127.4 to 129.1 | better tyrosinase inhibitory activities than a kojic acid |  |  |  | as high scavenging effects on ROS generated by vascular endothelial cells as trolox
14 | CC(C)(Oc1ccc(-c2nc3cc(Cl)ccc3s2)cc1)C(=O)O [Compound 99, 2-(4-(5-chlorobenzo[d]thiazol-2-yl)phenoxy)-2-methylpropanoic acid] |  | better tyrosinase inhibitory activities than a kojic acid | very excellent PPARα activation agent compared to fenofibrate | simultaneously activates PPARα and PPARγ | very excellent PPARγ activation agent compared to rosiglitazone | 

— patent US8889881B2, “Compound having skin-whitening, anti-oxidizing and PPAR activities and medical use therefor” (Pusan National University Industry —University Cooperation …, priority 2011, dated 2014)
